Reference: article PMC10562414, “GLP-1R signaling neighborhoods associate with the susceptibility to adverse drug reactions of incretin mimetics” (Nature Communications, 2023)

Tested on: GLP-1R-expressing HEK293 cells + Dyngo-4A (phosphoproteome)
Test: Phosphoproteomics, GLP-1R-transfected cells with internalization inhibitor Dyngo-4A, 30 min
Type: cell-based, human
Details: 50 μM, 30 min preincubation
Description: P values were calculated by a two-sided unpaired t-test.
HEK293 cells (350,000 cells/mL) were transfected in suspension using 3 μg of linear PEI (MW 25,000) per 1 μg of plasmid DNA and seeded onto poly-D-lysine-coated 60 mm dishes at a density of 1,750,000 cells per dish. After a 24-h incubation, cells were washed twice with PBS and placed in starvation media (DMEM with penicillin/streptomycin). After a 48-h incubation, cells were washed twice with HBSS and maintained in the same buffer. […] Cell extracts were prepared as previously described[64]–[66]. In short, 200 μL of the lysis buffer preheated at 95 °C (4% sodium dodecyl sulfate in 50 mM Tris adjusted to pH 8.5) was added to the cells. The samples were then denatured at 95 °C for 10 min, placed on ice and then sonicated using a probe sonicator (3 sec on, 3 sec off pulse, 1 min, 30% amplitude) (Branson). Lysate protein concentration was determined using the Pierce bicinchoninic acid assay kit (Thermo Fisher Scientific) according to the manufacturer’s instructions. The lysates were reduced using 5 mM dithiothreitol for 1 h at room temperature and alkylated using 15 mM iodoacetamide for 1 h at room temperature in the dark. Proteins were precipitated and digested on beads using MagReSyn Amine magnetic beads (ReSyn Biosciences) according to the manufacturer’s instructions. Protein digestion was conducted overnight at 37 °C with lysyl endopeptidase (LysC, Wako) (1:150 LysC/protein, w/w) and trypsin (1:300 trypsin/protein, w/w). 20% TFA, 2 M glycolic acid in 80% ACN were added to the samples at a 1:1 ratio for phosphopeptide enrichment using MagReSyn TiO2 magnetic beads (ReSyn Biosciences) according to the manufacturer’s instructions. The enriched phosphopeptides were dried overnight in a SpeedVac, resuspended into 5% formic acid (FA), desalted using StageTip (Thermo Fisher Scientific) according to the manufacturer’s instructions and dried in a SpeedVac. The experiment was performed in biological triplicates.
All parameters and settings regarding the acquisition of the proteomics data can be found in Supplementary Data 11, 12. For data acquisition, the instrument was set to peptide mode, with a trapping pressure set as low (2mTorr). An EASY-Spray Source (Thermo Fisher Scientific) was used and the column temperature was maintained with the integrated, temperature-controlled heater at 55 °C throughout the experiment. For the data presented in Fig. 5d, the column was heated at 50 °C following the manufacturer’s instructions (IonOpticks).
Acquired raw files were converted to mzML format by MSConvert (version 3.0.21258)[67] applying peak picking of the mass spectra with the vendor-provided algorithm (Thermo Fisher Scientific). The mzML files were analyzed using the FragPipe GUI v18 for both library and DIA search. […] Trypsin with up to 2 missed cleavages was set as digestion enzyme, oxidation of methionine, acetylation of the N-terminus and phosphorylation on serine, threonine and tyrosine (maximal occurrence was set to three) were set as variable modifications. Carbamidomethylation of cysteine residues was set as a fixed modification. Peptide length was restricted to 7 to 50 amino acids, and 500 to 5000 Da. The precursor tolerance was set to ±20 ppm, fragment mass tolerance to 20 ppm and MSBooster was enabled. The resulting peptide-spectrum matches were adjusted to a 1% false discovery rate with Percolator[69] as part of the Philosopher toolkit (v4.4)[70] and converted to a spectra library. DIA files were analyzed by DIA-NN 1.8.1[71], [72] using the previously generated library and monitor-command mode. Peptide quantification was performed based on the fragment elution profiles from the MS2 level (area under the curve).
All further data processing was performed in R (version 4.2.1). Only phosphopeptides with a localization score of at least 0.75 were considered for further analysis. […]

O=C(N/N=C/c1cc(O)c(O)cc1O)c1cc2ccccc2cc1O [Dyngo-4A]
effect on magnitude of agonist-induced phosphorylation events: affected
